Here are results for four compounds from EP1816136A1, “GPR7-SELECTIVE LIGAND AND USE THEREOF” (BANYU PHARMACEUTICAL CO., LTD., priority 2004, dated 2006).

Non-standard residues stand in square brackets, D forms with d. Residues, ends and D or L forms follow the SMILES beside them. Ava = NCCCCC(=O)O

The target in assay [1] is T1, GPR7 (Homo sapiens, UniProt P48145).
T1 construct: expressed in transfected cells; host or cells: HEK293/CRE-BLA cells (AURORA), expression vector pIRES-hygro (Clontech)
T1 sequence (P48145 1-328): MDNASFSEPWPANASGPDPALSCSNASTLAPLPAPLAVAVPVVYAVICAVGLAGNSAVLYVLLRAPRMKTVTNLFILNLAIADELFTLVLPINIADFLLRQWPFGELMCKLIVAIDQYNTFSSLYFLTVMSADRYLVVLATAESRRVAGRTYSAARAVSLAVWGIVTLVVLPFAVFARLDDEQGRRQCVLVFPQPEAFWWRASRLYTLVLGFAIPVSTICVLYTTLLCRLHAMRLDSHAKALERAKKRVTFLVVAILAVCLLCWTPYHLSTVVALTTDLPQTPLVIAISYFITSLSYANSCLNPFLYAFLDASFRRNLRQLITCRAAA
In words: Binding inhibition test with [125I]-[Phe2]-hNPW(1-23), GPR7 membrane preparation. The conditions noted are these: Table 1, membrane preparation of HEK293/CRE-BLA cells expressing GPR7, 1 hour at room temperature. How it is done: (§1) One nmol of [Phe2]-hNPW(1-23) (prepared in Synthesis Example 19) was dissolved in 5 µL of anhydrous DMSO, and the solution was mixed with 0.1M nickel chloride. Then, the mixture was mixed with 10 µL of a 0.00 1 % aqueous solution of hydrogen peroxide, 10 µL of an enzyme solution (lactoperoxidase (Sigma) adjusted to 10 µg/mL with a 0.1M HEPES buffer solution), and 37 Mbq/10 µL of Iodine-125 (Amersham), whereafter the resulting mixture was reacted for 60 minutes at room temperature. The reaction was terminated with the addition of 10 µL of 1% sodium azide, and then a radiolabeled peptide fraction was collected by a PD-10 gel filtration column (Amersham) to obtain [^125I]-[Phe2]-hNPW(1-23).
(§2) A cDNA sequence coding for human GPR7 or GPR8 [see Genomics, vol. 28, p. 84 (1995)] was amplified by the PCR method, and cloned using the expression vector pIRES-hygro (Clontech). The resulting expression vector was transfected into HEK293/CRE-BLA cells (AURORA) using the cationic lipid method [see Proceedings of the National Academy of Sciences of the United States of America, vol. 84, p. 7413 (1987)] to obtain GPR7 or GPR8 expression cells.
(§3) A membrane preparation prepared from the cells expressing GPR7 or GPR8 was incubated for 1 hour at room temperature in an assay buffer solution (25 mM Tris buffer solution, 150 mM NaCl, pH 7.4) together with a test compound and 28,000 cpm of [^125I]-[Phe2]-hNPW(1-23). Then, the system was filtered through the glass filter GF/C. After washing with 25 mM Tris buffer solution (pH 7.4), radioactivity on the glass filter was measured. Nonspecific binding was measured in the presence of 1 µM hNPW (prepared in Synthesis Example 1), and the 50% inhibition concentration (IC50 value) of the test compound against [Phe2]-hNPW(1-23) specific binding was calculated [see Molecular Pharmacology, vol. 55, 1101 (1999)].

Assay [2] deals with T1, GPR7. In words: Measurement of activation capacity on GPR7 (CRE-BLA beta-lactamase reporter assay). The class given is cell-based. The conditions noted are these: Table 1; HEK293/CRE-BLA cells expressing GPR7; forskolin 1 µM; 3 hours at 37°C.
Text: as §2
(§4) In accordance with the method of Zlakarmik (see Science, 1998, vol. 279, p. 84), the activity of various synthetic peptides on GPR7 or GPR8 was measured. HEK293/CRE-BLA cells which expressed GPR7 or GPR8 (prepared in (2) of Test Example 1) were washed twice with PBS(-) buffer solution (GIBCO-BRL), and then Cell-dissociation buffer (GIBCO-BRL) was added. The system was kept at 37°C for 3 minutes in a CO2 incubator, and a culture flask was tapped to liberate the cells from the flask. After the cells were harvested by centrifugation, the cells were suspended in an Opti-MEM culture medium (GIBCO-BRL) containing 0.1 % BSA (Sigma) to count the cells and prepare a cell suspension containing 8×10^5 cells/mL. To 2 µL of a DMSO solution containing each test compound with a concentration of 50 times an end concentration, 50 µL of the 0.1% BSA-containing Opti-MEM medium incorporating forskolin (Sigma) so as to have an end concentration of 1 µM was added to form a reaction solution. To this reaction solution, 50 µL of the above cell suspension was added to initiate the reaction, and the system was incubated for 3 hours at 37°C in a CO2 incubator.
(§5) Then, using a BLA assay kit (AURORA), a coloring matter-introduced buffer solution incorporating 12 µL of Solution A [1 mM CCF2-AM/anhydrous DMSO solution], 120 µL of Solution B [100 mg/mL Pluronic 127, 0.1% acetic acid/DMSO solution], and 2 mL of Solution C [24% (w/w) PEG-400, 18% TR40/H2O] was prepared. This coloring matter-introduced buffer solution (20 µL) was added to the above-mentioned cell reaction mixture to introduce a β-lactamase substrate (CCF2-AM) into the cells. After the system was allowed to stand for 1 hour at room temperature, the fluorescence intensities of the sample at an excitation wavelength of 409 nm, at a fluorescence wavelength of 460 nm (a β-lactamase hydrolyzate of CCF), and at 530 nm (CCF) were measured. With β-lactamase activity (fluorescence intensity at 460 nm/fluorescence intensity at 530 nm) as an indicator, the activity of each of various peptides on GPR7 or GPR8 was measured, and the 50% effective concentration (EC50) of the test compound was calculated.
For orientation: Reporter assays use an easily measured gene product as a stand-in for the process of interest.

In assay [3] the target is T2, GPR8 (Homo sapiens, UniProt P48146).
T2 construct: expressed in transfected cells; host or cells: HEK293/CRE-BLA cells (AURORA), expression vector pIRES-hygro (Clontech)
T2 sequence (P48146 whole entry): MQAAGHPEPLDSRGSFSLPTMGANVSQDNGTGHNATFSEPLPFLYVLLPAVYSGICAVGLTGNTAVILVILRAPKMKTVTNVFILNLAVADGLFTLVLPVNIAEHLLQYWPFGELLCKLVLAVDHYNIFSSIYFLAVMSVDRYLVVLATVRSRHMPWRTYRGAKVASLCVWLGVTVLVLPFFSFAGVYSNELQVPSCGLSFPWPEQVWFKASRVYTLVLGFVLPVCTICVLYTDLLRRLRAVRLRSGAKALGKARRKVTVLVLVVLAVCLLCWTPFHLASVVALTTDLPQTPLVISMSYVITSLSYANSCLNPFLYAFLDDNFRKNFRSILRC
The assay can be described thus: Binding inhibition test with [125I]-[Phe2]-hNPW(1-23), GPR8 membrane preparation. The conditions noted are these: Table 1, membrane preparation of HEK293/CRE-BLA cells expressing GPR8, 1 hour at room temperature. How it is done:
as §1, §2, §3

In assay [4] the target is T2, GPR8. The assay can be described thus: Measurement of activation capacity on GPR8 (CRE-BLA beta-lactamase reporter assay). In kind it is cell-based. The conditions noted are these: Table 1; HEK293/CRE-BLA cells expressing GPR8; forskolin 1 µM; 3 hours at 37°C; read-out: GPR8 (nM) EC 50.
Text: as §2, §4, §5

In general, IC50 refers to the concentration needed to halve the response being measured. A higher IC50 goes with weaker potency. As for `CC(C)C[C@H](NC(=O)CNC(=O)[C@H](CO)NC(=O)[C@H](CC(C)C)NC(=O)[C@H](CC(C)C)NC(=O)CNC(=O)[C@H](C)NC(=O)[C@H](C)NC(=O)[C@H](CCCNC(=N)N)NC(=O)CNC(=O)CCCCNC(=O)CCCCNC(=O)CCCCNC(=O)[C@H](CCCCN)NC(=O)[C@H](Cc1ccc(O)cc1)NC(=O)[C@@H](N)Cc1c[nH]c2ccccc12)C(N)=O` [compound 7] (H-WYK[Ava][Ava][Ava]GRAAGLLSGL-NH2), the IC50 at GPR7 [1] amounted to 0.09 nM; on GPR8 [3] it was 260 nM. Besides, the EC50 on GPR7 [2] amounted to 0.48 nM; at GPR8 [4] it was 77 nM.
Consider `CC(C)C[C@H](NC(=O)CNC(=O)[C@H](CO)NC(=O)[C@H](CC(C)C)NC(=O)[C@H](CC(C)C)NC(=O)CNC(=O)[C@H](C)NC(=O)[C@H](C)NC(=O)[C@H](CCCNC(=N)N)NC(=O)CNC(=O)CCCCNC(=O)CCCCNC(=O)CCCCNC(=O)CCCCNC(=O)[C@H](CCCCN)NC(=O)[C@H](Cc1ccc(O)cc1)NC(=O)[C@@H](N)Cc1c[nH]c2ccccc12)C(N)=O` [compound 8] (H-WYK[Ava][Ava][Ava][Ava]GRAAGLLSGL-NH2), for which the figures for the IC50 at GPR7 [1] and at GPR8 [3] were 1.1 nM and 360 nM, respectively. The EC50 on GPR7 [2] turned out to be 1.2 nM; on GPR8 [4], 51 nM.
The corresponding values for `CC(C)C[C@H](NC(=O)CNC(=O)[C@H](CO)NC(=O)[C@H](CC(C)C)NC(=O)[C@H](CC(C)C)NC(=O)CNC(=O)[C@H](C)NC(=O)[C@H](C)NC(=O)[C@H](CCCNC(=N)N)NC(=O)CNC(=O)CCCCNC(=O)[C@H](CCCCN)NC(=O)[C@H](Cc1ccc(O)cc1)NC(=O)[C@@H](N)Cc1c[nH]c2ccccc12)C(N)=O` [compound 5] (H-WYK[Ava]GRAAGLLSGL-NH2) are 0.55 nM, 310 nM, 1.7 nM and 280 nM.
The like results for `CC(C)C[C@H](NC(=O)CNC(=O)[C@H](CO)NC(=O)[C@H](CC(C)C)NC(=O)[C@H](CC(C)C)NC(=O)CNC(=O)[C@H](C)NC(=O)[C@H](C)NC(=O)[C@H](CCCNC(=N)N)NC(=O)CNC(=O)CCCCNC(=O)CCCCNC(=O)[C@H](CCCCN)NC(=O)[C@H](Cc1ccc(O)cc1)NC(=O)[C@@H](N)Cc1c[nH]c2ccccc12)C(N)=O` [compound 6] (H-WYK[Ava][Ava]GRAAGLLSGL-NH2) were, in that order, 0.47 nM, 300 nM, 2.2 nM and 94 nM.
